Test results: patent US10590140B2, “Tetrahydropyrimidodiazepine and dihydropyridodiazepine compounds for treating pain and pain related conditions” (ESTEVE PHARMACEUTICALS, S.A., priority 2016, dated 2020)
Read-outs that look alike come from different tables or passages of the source.

How the values were obtained:
[1] = target: human α2δ-1 subunit of Cav2.2 calcium channel (Homo sapiens (Human), UniProt P54289); experiment: Binding assay to human α2δ-1 subunit of Cav2.2 calcium channel ([3H]-Gabapentin); conditions: read-out: Ki (nM) α2δ-1
Chain of human α2δ-1 subunit of Cav2.2 calcium channel (P54289 25-1103): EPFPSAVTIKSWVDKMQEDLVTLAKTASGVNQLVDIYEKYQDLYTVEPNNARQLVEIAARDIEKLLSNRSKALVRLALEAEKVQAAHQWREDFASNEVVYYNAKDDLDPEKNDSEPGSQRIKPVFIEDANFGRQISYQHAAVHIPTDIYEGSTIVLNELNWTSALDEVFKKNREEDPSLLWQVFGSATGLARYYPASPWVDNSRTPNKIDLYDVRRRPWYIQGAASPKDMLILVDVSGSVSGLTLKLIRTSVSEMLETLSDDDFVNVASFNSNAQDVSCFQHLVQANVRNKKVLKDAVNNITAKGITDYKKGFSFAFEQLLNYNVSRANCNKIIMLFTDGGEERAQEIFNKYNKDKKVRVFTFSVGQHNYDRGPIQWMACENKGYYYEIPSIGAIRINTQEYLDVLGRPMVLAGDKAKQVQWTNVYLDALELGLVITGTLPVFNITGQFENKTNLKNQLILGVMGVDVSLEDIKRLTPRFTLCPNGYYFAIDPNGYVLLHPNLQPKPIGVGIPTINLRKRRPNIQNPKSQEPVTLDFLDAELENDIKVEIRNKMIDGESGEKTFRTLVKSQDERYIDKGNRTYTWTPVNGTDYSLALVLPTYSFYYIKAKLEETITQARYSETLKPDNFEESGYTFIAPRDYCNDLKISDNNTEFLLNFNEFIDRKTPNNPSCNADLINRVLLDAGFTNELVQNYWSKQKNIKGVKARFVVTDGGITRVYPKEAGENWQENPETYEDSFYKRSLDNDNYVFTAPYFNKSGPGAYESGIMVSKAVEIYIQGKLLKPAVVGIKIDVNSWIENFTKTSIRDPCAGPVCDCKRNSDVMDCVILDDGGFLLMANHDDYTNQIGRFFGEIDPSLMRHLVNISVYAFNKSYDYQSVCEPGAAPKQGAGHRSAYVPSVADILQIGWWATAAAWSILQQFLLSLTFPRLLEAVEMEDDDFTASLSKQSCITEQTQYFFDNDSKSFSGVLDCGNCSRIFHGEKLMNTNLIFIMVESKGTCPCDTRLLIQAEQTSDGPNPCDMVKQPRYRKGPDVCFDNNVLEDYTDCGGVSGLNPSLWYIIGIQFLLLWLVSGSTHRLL
How it was run: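 Radioactivity on dried GF/C filters quantified by scintillation after filtration and three cold Tris-HCl (pH 7.4) washes. Incubation ran 60 min at 27° C with [3H]-gabapentin; 10 μM pregabalin gave nonspecific binding.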

[2] = target: human norepinephrine transporter (NET) (Homo sapiens (Human), UniProt P23975); experiment: Binding assay to human norepinephrine transporter (NET) ([3H]-Nisoxetin); conditions: Table 2, dual compounds; [3H]-Nisoxetin binding
Chain of human norepinephrine transporter (NET) (P23975 whole entry): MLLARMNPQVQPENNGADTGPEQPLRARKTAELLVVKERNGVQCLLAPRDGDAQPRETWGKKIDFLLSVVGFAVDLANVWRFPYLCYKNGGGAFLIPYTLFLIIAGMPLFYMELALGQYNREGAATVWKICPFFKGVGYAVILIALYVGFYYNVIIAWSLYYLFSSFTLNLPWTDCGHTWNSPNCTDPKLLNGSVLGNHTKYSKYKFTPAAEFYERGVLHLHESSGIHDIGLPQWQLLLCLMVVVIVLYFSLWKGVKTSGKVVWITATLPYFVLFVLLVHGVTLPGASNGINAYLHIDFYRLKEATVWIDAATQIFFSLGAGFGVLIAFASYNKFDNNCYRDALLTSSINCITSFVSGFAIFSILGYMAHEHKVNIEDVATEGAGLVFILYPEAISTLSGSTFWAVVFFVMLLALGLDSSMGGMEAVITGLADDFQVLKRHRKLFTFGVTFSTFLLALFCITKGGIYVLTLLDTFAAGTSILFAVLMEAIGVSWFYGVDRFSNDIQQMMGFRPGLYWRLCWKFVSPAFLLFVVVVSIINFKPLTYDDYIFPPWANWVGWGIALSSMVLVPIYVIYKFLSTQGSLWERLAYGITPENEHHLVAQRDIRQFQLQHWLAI
How it was run: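 NET-enriched membranes (5 μg) incubated with 5 nM [3H]-nisoxetin in 50 mM Tris-HCl, 120 mM NaCl, 5 mM KCl, pH 7.4, 60 min at 4 °C. Bound ligand separated by filtration on PEI-soaked GF/C and counted by scintillation; nonspecific binding defined with 1 μM competitor.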

[3] = Table 2, dual compounds, [3H]-Gabapentin binding
[4] = binding to α2δ-1, [3H]-Gabapentin

SMILES | Ki [1, 3] [nM] | Ki [1, 4] [nM] | Ki [2] [nM]
CNCCC(Oc1cccc(N2CCN(C)c3nc(SC)ncc3C2=O)c1)c1ccccc1 (stereo not drawn) [Example 151, 9-methyl-6-(3-(3-(methylamino)-1-phenylpropoxy)phenyl)-2-(methylthio)-6,7,8,9-tetrahydro-5H-pyrimido[4,5-e][1,4]diazepin-5-one] | 500 to 3000 | 500 to 3000 | < 100
CCNc1ncc2c(n1)N(C)CCN(c1cccc(CO[C@H](CCN(C)C)c3ccccc3)c1)C2=O [Example 236, (R)-6-(3-((3-(Dimethylamino)-1-phenylpropoxy)methyl)phenyl)-2-(ethylamino)-9-methyl-6,7,8,9-tetrahydro-5H-pyrimido[4,5-e][1,4]diazepin-5-one] | 500 to 3000 | 500 to 3000 | 500 to 1000
CNCC[C@H](Oc1ccc(CN2CCN(C)c3cc(OC)ncc3C2=O)cc1)c1cccs1 [Example 385, (S)-8-methoxy-1-methyl-4-(4-(3-(methylamino)-1-(thiophen-2-yl)propoxy)benzyl)-1,2,3,4-tetrahydro-5H-pyrido[4,3-e][1,4]diazepin-5-one] | 100 to 500 | 100 to 500 | 100 to 500
CNCCC(OCc1ccc(N2CCN(C)c3nc(SC)ncc3C2=O)cc1)c1ccccc1 (stereo not drawn) [Example 315, 9-methyl-6-(4-((3-(methylamino)-1-phenylpropoxy)methyl)phenyl)-2-(methylthio)-6,7,8,9-tetrahydro-5H-pyrimido[4,5-e][1,4]diazepin-5-one] | > 3000 | > 3000 | < 100
CNCC[C@@H](OCc1cccc(N2CCN(C)c3nc(OC)ncc3C2=O)c1)c1ccccc1 [Example 204, (R)-2-methoxy-9-methyl-6-(3-((3-(methylamino)-1-phenylpropoxy)methyl)phenyl)-6,7,8,9-tetrahydro-5H-pyrimido[4,5-e][1,4]diazepin-5-one] | 500 to 3000 | 500 to 3000 | 100 to 500
CNCCC(OCc1cccc(CN2CCN(C)c3nc(SC)ncc3C2=O)c1)c1ccccc1 (stereo not drawn) [Example 367, 9-methyl-6-(3-((3-(methylamino)-1-phenylpropoxy)methyl)benzyl)-2-(methylthio)-6,7,8,9-tetrahydro-5H-pyrimido[4,5-e][1,4]diazepin-5-one] | > 3000 | > 3000 | 100 to 500
CNCC[C@@H](OCc1cccc(N2CCN(C)c3nc(NCc4ccccn4)ncc3C2=O)c1)c1ccccc1 [Example 343, (R)-9-methyl-6-(3-((3-(methylamino)-1-phenylpropoxy)methyl)phenyl)-2-((pyridin-2-ylmethyl)amino)-6,7,8,9-tetrahydro-5H-pyrimido[4,5-e][1,4]diazepin-5-one] | 100 to 500 | 100 to 500 | 100 to 500
CNCC(OCc1cccc(CN2CCN(C)c3nc(SC)ncc3C2=O)c1)c1ccccc1 (stereo not drawn) [Example 372, 9-methyl-6-(3-((2-(methylamino)-1-phenylethoxy)methyl)benzyl)-2-(methylthio)-6,7,8,9-tetrahydro-5H-pyrimido[4,5-e][1,4]diazepin-5-one] | > 3000 | > 3000 | 100 to 500
CSc1ncc2c(n1)N(C)CCN(c1cccc(COC3(c4ccccc4)CCN(C)CC3)c1)C2=O [Example 271, 9-methyl-6-(3-(((1-methyl-4-phenylpiperidin-4-yl)oxy)methyl)phenyl)-2-(methylthio)-6,7,8,9-tetrahydro-5H-pyrimido[4,5-e][1,4]diazepin-5-one] | > 3000 | > 3000 | > 1000
CCNc1ncc2c(n1)N(C)CCN(c1cccc(-n3cnc(CN(C)CCc4ccccc4)c3)c1)C2=O [Example 254, 2-(ethylamino)-9-methyl-6-(3-(4-((methyl(phenethyl)amino)methyl)-1H-imidazol-1-yl)phenyl)-6,7,8,9-tetrahydro-5H-pyrimido[4,5-e][1,4]diazepin-5-one] | 500 to 3000 | 500 to 3000 | 500 to 1000
